From patent publication US7371766B2, “Curcumin analogs with anti-tumor and anti-angiogenic properties” (Emory University, priority 1999, dated 2008)

How the values were obtained:
ACHN = assay: cells; conditions: Homo sapiens, 48 h; for GI50: read-out: Median Growth Inhibitory Concentration (GI50); for CC50: read-out: Median Lethal Concentration (LC50)
SF-268 = assay: cells; conditions: Homo sapiens, SF-268, 48 h; for GI50: read-out: Median Growth Inhibitory Concentration (GI50); for CC50: read-out: Median Lethal Concentration (LC50)
NCI-H522 = assay: cells; conditions: Homo sapiens, NCI-H522, 48 h; for GI50: read-out: Median Growth Inhibitory Concentration (GI50); for CC50: read-out: Median Lethal Concentration (LC50)
COLO 205 = assay: cells; conditions: Homo sapiens, COLO 205, 48 h; for GI50: read-out: Median Growth Inhibitory Concentration (GI50); for CC50: read-out: Median Lethal Concentration (LC50)
M14 = assay: cells; conditions: Homo sapiens, M14, 48 h; for GI50: read-out: Median Growth Inhibitory Concentration (GI50); for CC50: read-out: Median Lethal Concentration (LC50)
RXF 393 = assay: cells; conditions: Homo sapiens, RXF 393, 48 h; for GI50: read-out: Median Growth Inhibitory Concentration (GI50); for CC50: read-out: Median Lethal Concentration (LC50)
UACC-62 = assay: cells; conditions: Homo sapiens, UACC-62, 48 h; for GI50: read-out: Median Growth Inhibitory Concentration (GI50); for CC50: read-out: Median Lethal Concentration (LC50)
NCI/ADR-RES = assay: cells; conditions: Homo sapiens, 48 h; for GI50: read-out: Median Growth Inhibitory Concentration (GI50); for CC50: read-out: Median Lethal Concentration (LC50)
SNB-75 = assay: cells; conditions: Homo sapiens, SNB-75, 48 h; for GI50: read-out: Median Growth Inhibitory Concentration (GI50); for CC50: read-out: Median Lethal Concentration (LC50)
HCT-15 = assay: cells; conditions: Homo sapiens, HCT-15, 48 h; for GI50: read-out: Median Growth Inhibitory Concentration (GI50); for CC50: read-out: Median Lethal Concentration (LC50)
HOP-62 = assay: cells; conditions: Homo sapiens, HOP-62, 48 h; for GI50: read-out: Median Growth Inhibitory Concentration (GI50); for CC50: read-out: Median Lethal Concentration (LC50)
MALME-3M = assay: cells; conditions: Homo sapiens, 48 h; for GI50: read-out: Median Growth Inhibitory Concentration (GI50); for CC50: read-out: Median Lethal Concentration (LC50)
HL-60 (TB) = assay: cells; conditions: Homo sapiens, HL-60, 48 h; for GI50: read-out: Median Growth Inhibitory Concentration (GI50); for CC50: read-out: Median Lethal Concentration (LC50)
A498 = assay: cells; conditions: Homo sapiens, A498, 48 h; for GI50: read-out: Median Growth Inhibitory Concentration (GI50); for CC50: read-out: Median Lethal Concentration (LC50)
NCI-H226 = assay: cells; conditions: Homo sapiens, NCI-H226, 48 h; for GI50: read-out: Median Growth Inhibitory Concentration (GI50); for CC50: read-out: Median Lethal Concentration (LC50)
SN12C = assay: cells; conditions: Homo sapiens, 48 h; for GI50: read-out: Median Growth Inhibitory Concentration (GI50); for CC50: read-out: Median Lethal Concentration (LC50)
SNB-19 = assay: cells; conditions: Homo sapiens, SNB-19, 48 h; for GI50: read-out: Median Growth Inhibitory Concentration (GI50); for CC50: read-out: Median Lethal Concentration (LC50)
UACC-257 = assay: cells; conditions: Homo sapiens, UACC-257, 48 h; for GI50: read-out: Median Growth Inhibitory Concentration (GI50); for CC50: read-out: Median Lethal Concentration (LC50)
BT-549 = assay: cells; conditions: Homo sapiens, BT-549, 48 h; for GI50: read-out: Median Growth Inhibitory Concentration (GI50); for CC50: read-out: Median Lethal Concentration (LC50)
TK-10 = assay: cells; conditions: Homo sapiens, TK-10, 48 h; for GI50: read-out: Median Growth Inhibitory Concentration (GI50); for CC50: read-out: Median Lethal Concentration (LC50)
MDA-MB-231 = assay: cells; conditions: Homo sapiens, MDA-MB-231, 48 h; for GI50: read-out: Median Growth Inhibitory Concentration (GI50); for CC50: read-out: Median Lethal Concentration (LC50)
SK-MEL-2 = assay: cells; conditions: Homo sapiens, SK-MEL-2, 48 h; for GI50: read-out: Median Growth Inhibitory Concentration (GI50); for CC50: read-out: Median Lethal Concentration (LC50)
PC-3 = assay: cells; conditions: Homo sapiens, PC-3, 48 h; for GI50: read-out: Median Growth Inhibitory Concentration (GI50); for CC50: read-out: Median Lethal Concentration (LC50)
U251 = assay: cells; conditions: Homo sapiens, U-251, 48 h; for GI50: read-out: Median Growth Inhibitory Concentration (GI50); for CC50: read-out: Median Lethal Concentration (LC50)
DU-145 = assay: cells; conditions: Homo sapiens, DU-145, 48 h; for GI50: read-out: Median Growth Inhibitory Concentration (GI50); for CC50: read-out: Median Lethal Concentration (LC50)
T-47D = assay: cells; conditions: Homo sapiens, T47D, 48 h; for GI50: read-out: Median Growth Inhibitory Concentration (GI50); for CC50: read-out: Median Lethal Concentration (LC50)
HT29 = assay: cells; conditions: Homo sapiens, HT-29, 48 h; for GI50: read-out: Median Growth Inhibitory Concentration (GI50); for CC50: read-out: Median Lethal Concentration (LC50)
RPMI-7951 human melanoma = assay: Neutral Red Assay, cell viability, RPMI-7951; conditions: for Neutral Red Uptake, % / Cell Viability: RPMI-7951; for Neutral Red Uptake, %: 72 hours; for Cell Viability: DMSO = 100
[1] = system: Sixty human tumor cell lines; conditions: for GI50: read-out: Median Growth Inhibitory Concentration (GI50), Mean, Mean over the NCI cell lines
[2] = NCI Anti-Tumor Screen, several cell types

Compound: OC(CCc1ccc(F)cc1F)CCc1ccc(F)cc1F [EF19, 1,5-Bis(2,4-difluorophenyl)-pentan-3-ol]
- GI50 (ACHN): 17.8 µM
- CC50 (ACHN): 56.3 µM
- GI50 (SF-268): 21.5 µM
- CC50 (SF-268): 85.3 µM
- GI50 (NCI-H522): 18.2 µM
- CC50 (NCI-H522): 75.4 µM
- GI50 (COLO 205): 17.5 µM
- CC50 (COLO 205): 55.9 µM
- GI50 (M14): 18.3 µM
- CC50 (M14): 68.7 µM
- GI50 (RXF 393): 18.8 µM
- CC50 (RXF 393): 58.4 µM
- GI50 (UACC-62): 15.1 µM
- CC50 (UACC-62): 53.2 µM
- GI50 (NCI/ADR-RES): 25.3 µM
- CC50 (NCI/ADR-RES): > 100 µM
- GI50 (SNB-75): 19 µM
- CC50 (SNB-75): 57.5 µM
- GI50 (HCT-15): 24.8 µM
- CC50 (HCT-15): > 100 µM
- GI50 (HOP-62): 18 µM
- CC50 (HOP-62): 58.7 µM
- GI50 (MALME-3M): 18 µM
- CC50 (MALME-3M): 59.6 µM
- GI50 (HL-60 (TB)): 18.1 µM
- CC50 (HL-60 (TB)): 66.8 µM
- GI50 (A498): 16.3 µM
- CC50 (A498): 54.7 µM
- GI50 (NCI-H226): 19.9 µM
- CC50 (NCI-H226): 75.7 µM
- GI50 (SN12C): 17.4 µM
- CC50 (SN12C): 55.9 µM
- GI50 (SNB-19): 16.1 µM
- CC50 (SNB-19): 57.3 µM
- GI50 (UACC-257): 17.9 µM
- CC50 (UACC-257): 56.3 µM
- GI50 (BT-549): 17.9 µM
- CC50 (BT-549): 64.7 µM
- GI50 (TK-10): 17.4 µM
- CC50 (TK-10): 56.3 µM
- GI50 (MDA-MB-231): 22.4 µM
- CC50 (MDA-MB-231): 66.3 µM
- GI50 (SK-MEL-2): 18.4 µM
- CC50 (SK-MEL-2): 57 µM
- GI50 (PC-3): 17.5 µM
- CC50 (PC-3): 56.7 µM
- GI50 (U251): 17.4 µM
- CC50 (U251): 55.8 µM
- GI50 (DU-145): 18.1 µM
- CC50 (DU-145): 56.6 µM
- GI50 (T-47D): 15.5 µM
- CC50 (T-47D): 68.9 µM
- GI50 (HT29): 17.9 µM
- CC50 (HT29): 62.6 µM

Compound: CC1(/C=C/c2ccccc2O)C=Cc2ccccc2O1 (stereo not shown) [EF7]
- GI50 (ACHN): 15.7 µM
- CC50 (ACHN): 54 µM
- GI50 (SF-268): 19.8 µM
- CC50 (SF-268): > 100 µM
- GI50 (NCI-H522): 16.2 µM
- CC50 (NCI-H522): > 100 µM
- GI50 (COLO 205): 17.5 µM
- CC50 (COLO 205): 55.9 µM
- GI50 (M14): 15.7 µM
- CC50 (M14): 54 µM
- GI50 (RXF 393): 11 µM
- CC50 (RXF 393): 49.2 µM
- GI50 (UACC-62): 12.2 µM
- CC50 (UACC-62): 49.6 µM
- GI50 (NCI/ADR-RES): 19.3 µM
- CC50 (NCI/ADR-RES): > 100 µM
- GI50 (SNB-75): 11.8 µM
- CC50 (SNB-75): 49 µM
- GI50 (HCT-15): 17.2 µM
- CC50 (HCT-15): 68.9 µM
- GI50 (HOP-62): 16.3 µM
- CC50 (HOP-62): 63.1 µM
- GI50 (MALME-3M): 17.5 µM
- CC50 (MALME-3M): 68.8 µM
- GI50 (HL-60 (TB)): 17.7 µM
- CC50 (HL-60 (TB)): 76 µM
- GI50 (A498): 17.2 µM
- CC50 (A498): 55.6 µM
- GI50 (NCI-H226): 18.7 µM
- CC50 (NCI-H226): 78.8 µM
- GI50 (SN12C): 15.2 µM
- CC50 (SN12C): 54.4 µM
- GI50 (SNB-19): 17.5 µM
- CC50 (SNB-19): 55.9 µM
- GI50 (UACC-257): 16.9 µM
- CC50 (UACC-257): 55.2 µM
- GI50 (BT-549): 17.1 µM
- CC50 (BT-549): 56.8 µM
- GI50 (TK-10): 17.4 µM
- CC50 (TK-10): 55.9 µM
- GI50 (MDA-MB-231): 19.8 µM
- CC50 (MDA-MB-231): 74.6 µM
- GI50 (SK-MEL-2): 16.8 µM
- CC50 (SK-MEL-2): 57 µM
- GI50 (PC-3): 17.2 µM
- CC50 (PC-3): 55.6 µM
- GI50 (U251): 16.1 µM
- CC50 (U251): 54.4 µM
- GI50 (DU-145): 16.4 µM
- CC50 (DU-145): 54.8 µM
- viability at 20 µM (RPMI-7951 human melanoma; Homo sapiens, RPMI-7951, read-out: Cell Viability): 78%
- GI50 (T-47D): 7.7 µM
- CC50 (T-47D): 55.4 µM
- GI50 (HT29): 17.8 µM
- CC50 (HT29): 60.6 µM

Compound: C(=C\c1ccccc1)/S/C=C/c1ccccc1 [EF15]
- GI50 ([1]; 48 hours): 75.9 µM
- Neutral Red Uptake, % (RPMI-7951 human melanoma; 5 μM): 100 % of control
- Cell Viability (RPMI-7951 human melanoma; 5 μM): 112%
- Neutral Red Uptake, % (RPMI-7951 human melanoma; 20 μM): 100 % of control
- Cell Viability (RPMI-7951 human melanoma; 20 μM): 111%

Compound: O=C1C(=Cc2ccccc2O)COCC1=Cc1ccccc1O [EF25, 3,5-Bis(2-hyrdoxybenzylidene)tetrahydro4-H-pyran4-one]
- GI50 compared with CISPLATIN, in words [1, 2]: lower GI50 than the chemotherapeutic agent CISPLATIN for several cell types
- LC50 compared with CISPLATIN, in words [1, 2]: lower LC50 than the chemotherapeutic agent CISPLATIN for several cell types
- GI50 ([1]; 48 hours): 1.1 µM
- CC50 ([1]; read-out: Median Lethal Concentration (LC50), Mean, Mean over the cell line panel, 48 hours, SRB assay): 24.2 µM
- Cell Viability (RPMI-7951 human melanoma; 5 μM): 12%

Compound: 3,5-Bis(2-hydroxybenzylidene)-sulfone [EF11]
- GI50 ([1]; 48 hours): 34.7 µM
- Cell Viability (RPMI-7951 human melanoma; 20 μM): 93%

Compound: N.N.[Cl][Pt][Cl] [Cisplatin, reference compound]
- GI50 ([1]; 48 hours): 0.7 µM
- Neutral Red Uptake, % (RPMI-7951 human melanoma; 5 μM): 100 % of control
- Neutral Red Uptake, % (RPMI-7951 human melanoma; 20 μM): 100 % of control
